Experimental data from publication PMC11206987, “Investigation of the Efficacy of Benzylidene-3-methyl-2-thioxothiazolidin-4-one Analogs with Antioxidant Activities on the Inhibition of Mushroom and Mammal Tyrosinases” (Molecules, 2024).
Like-named read-outs stand apart in the source and are kept apart here.

Experiments:
[1] = target: T1, B16F10 cellular tyrosinase (Mus musculus, UniProt P11344); assay: Cellular tyrosinase activity assay in B16F10 cells stimulated with IBMX plus α-MSH; format: cell-based, murine; conditions: 72 h
T1 construct: host or cells: B16F10 cells
T1 sequence (P11344 19-533): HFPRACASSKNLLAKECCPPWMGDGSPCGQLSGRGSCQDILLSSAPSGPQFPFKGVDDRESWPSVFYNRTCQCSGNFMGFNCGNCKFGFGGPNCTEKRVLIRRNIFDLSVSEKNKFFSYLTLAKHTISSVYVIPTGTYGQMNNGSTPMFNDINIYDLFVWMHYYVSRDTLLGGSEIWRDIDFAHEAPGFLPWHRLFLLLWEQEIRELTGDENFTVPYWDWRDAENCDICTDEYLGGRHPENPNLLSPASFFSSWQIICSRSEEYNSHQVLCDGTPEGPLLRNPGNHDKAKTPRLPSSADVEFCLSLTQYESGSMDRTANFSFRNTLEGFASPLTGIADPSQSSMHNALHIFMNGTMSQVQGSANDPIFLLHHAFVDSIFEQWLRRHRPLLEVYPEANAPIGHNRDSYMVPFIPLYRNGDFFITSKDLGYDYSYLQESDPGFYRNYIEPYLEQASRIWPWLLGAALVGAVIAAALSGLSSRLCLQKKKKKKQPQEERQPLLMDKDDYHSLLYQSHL
Method: Analogs 1, 3, and 5 were exposed to B16F10 cells at various concentrations (20, 10, 5, and 0 µM) before exposure to IBMX (200 µM; 3-isobutyl-1-methylxanthine) and α-MSH (1 µM; α-melanocyte-stimulating hormone). After incubation (72 h), B16F10 cellular tyrosinase activity was determined. […] It was examined whether the cellular tyrosinase inhibition of the BMTTZD analogs could influence B16F10 cellular melanin contents.
Effects on B16F10 tyrosinase inhibition were evaluated as previously described. A 6-well plate containing 1 × 10^5 B16F10 cells/well was cultivated for 23 h under conditions identical to those of the cell culture. […] The cells were cultivated for 72 h. After washing 2 times with PBS, the cells were lysed in a 100 µL lysis buffer, including phenylmethylsulfonyl fluoride (5 µL; 1 mM), Triton X-100 (5 µL; 1%), and phosphate buffer (90 µL; 50 mM (pH 6.5)). After 30 min incubation at −80 °C, the cell lysates were centrifuged at 4 °C for 30 min. The supernatants (80 µL) of the lysates were moved to each well of a microplate and mixed with 20 µL 10 mM L-dopa.

B16F10 cells = assay: Melanin content assay in B16F10 cells; format: cell-based, murine; conditions: 72 h
Method: We examined whether the ability of analogs 1, 3, and 5 to inhibit intracellular tyrosinase activity could affect intracellular melanin levels. B16F10 cells were utilized as mammalian cells. IBMX and α-MSH were used at 200 µM and 1 µM, respectively, to increase melanin biosynthesis. […] For the intracellular melanin content determination, the absorbance at 405 nm was evaluated after 72 h of incubation.
The effect of BMTTZD analogs on melanin biosynthesis was investigated following a previously described method. A 6-well microplate containing 1 × 10^5 B16F10 cells/well was cultivated for 23 h under conditions identical to those of the cell culture. […] After exposure to IBMX and α-MSH, B16F10 cells were cultivated for 72 h at 37 °C. The cells were rinsed 2 times with PBS, treated with 1N-NaOH aqueous solution (100 µL), and cultivated at 60 °C for 1 h. The lysates were moved to a microplate. At 405 nm, the well absorbance was measured utilizing a VersaMax® reader. Each experiment was carried out three times independently.

[2] = target: T1, B16F10 cellular tyrosinase; assay: In situ cellular tyrosinase activity assay using L-dopa staining; format: cell-based, murine; conditions: 72 h
Method: Because tyrosinase plays a critical role in melanogenesis, in situ intracellular tyrosinase activity was measured. The in situ intracellular tyrosinase activity was evaluated in B16F10 cells following a previously reported procedure. Stimulators (α-MSH plus IBMX) were exposed to cells to raise tyrosinase activity levels, and analogs 1, 3, and 5 were treated at 20, 10, and 5 µM for 72 h. After fixation and permeabilization using paraformaldehyde and Triton X-100, the cells were stained with L-dopa.
A 24-well plate containing 1 × 10^3 B16F10 cells/well was cultivated for 24 h under conditions identical to those of the cell culture. […] The cells were then cultivated under conditions identical to those of the cell culture for 72 h. Cultivated cells were fixed for 40 min with paraformaldehyde (4%), washed 2 times with PBS, and permeabilized with Triton X-100 (0.1%) for 2 min. After washing 2 times with PBS, the cells in the 24-well plate were stained with a 2 mM L-dopa aqueous solution (500 µL/well) for 2 h at 37 °C. Staining was photographed and analyzed utilizing a camera connected to a microscope (Motic, Hong Kong).

mushroom tyrosinase = assay: Mushroom tyrosinase inhibition assay (dopachrome, 475 nm); format: biochemical; conditions: for IC50: mushroom tyrosinase
Method: The ability of the BMTTZD analogs to inhibit mushroom tyrosinase was evaluated in the presence of L-dopa and L-tyrosine as previously described.

[3] = ABTS+ radical scavenging activity assay; conditions: 100 µM
Method: Second, the ability of BMTTZD analogs to scavenge ABTS^+ radicals was examined. ABTS^+ radicals were obtained via the oxidation of ABTS using potassium persulfate. All samples (Trolox (positive control) and 1–8) were tested at 100 µM.
The ability of the BMTTZD analogs to scavenge ABTS^+ radicals was assessed as previously described, with minor modifications. To a 50 mL tube were added 20 mL aqueous K2S2O8 solution (2.45 mM) and 20 mL aqueous ABTS solution (7 mM). The combined mixture was placed at 22 °C in a place without light for 17 h to generate the ABTS^+ radicals. For adequate absorbance control (0.70 ± 0.02 at 734 nm), methanol was added to the combined mixture. Test compounds (Trolox and analogs 1–8; 10 µL in 10% DMSO/90% EtOH [v/v] solution) were mixed with 90 µL ABTS^+ radical solution. After storage in a place without light for 2 min, the well absorbance at 734 nm was acquired for 10 min every 1 min by using a microplate reader (VersaMax®). All test compounds were tested at 100 µM. The activity of the analogs was compared to that of Trolox.

SMILES: CN1C(=O)/C(=C/c2ccc(O)cc2O)SC1=S [Analog 3, (Z)-5-(2,4-Dihydroxybenzylidene)-3-methyl-2-thioxothiazolidin-4-one]
- effect on stimulator-induced cellular tyrosinase activity ([1]; 5, 10, 20 µM, IBMX plus α-MSH): concentration-dependently and significantly reduced
- cellular tyrosinase inhibition compared with kojic acid (20 µM) ([1]; analog at 10 µM): slightly more strongly than kojic acid
- cellular tyrosinase inhibition compared with kojic acid (20 µM) ([1]; analog at highest concentration tested (20 µM)): stronger inhibitory effects than kojic acid
- decrease of intracellular melanin contents (B16F10 cells; 20 µM, IBMX plus α-MSH (raised melanin 4.4-fold)): 2.0 fold
- effect on intracellular melanin contents enhanced by IBMX plus α-MSH (B16F10 cells; 5, 10, 20 µM): significantly reduced the melanin contents
- in situ intracellular tyrosinase inhibition compared with kojic acid ([2]; 20 µM): tyrosinase inhibition stronger than did kojic acid
- effect on stimulator-raised in situ intracellular tyrosinase activity (L-dopa staining) ([2]; analogs 5, 10, 20 µM, kojic acid 20 µM): concentration-dependently reduced the stimulator-enhanced intracellular tyrosinase inhibition
- tyrosinase inhibition, fold stronger than kojic acid (mushroom tyrosinase; substrate L-dopa): 22 fold
- IC50 (mushroom tyrosinase; substrate L-dopa, read-out: IC50 (Mean ± SEM, µM) L-Dopa): 1.12 ± 0.06 µM
- tyrosinase inhibition, times stronger than kojic acid (mushroom tyrosinase; substrate L-tyrosine): 220 times
- IC50 (mushroom tyrosinase; substrate L-tyrosine, read-out: IC50 (Mean ± SEM, µM) L-Tyrosine): 0.08 ± 0.02 µM
- ABTS^+ radical scavenging activity [3]: 95%
